Measured values from US5120735A, “Antifungal composition” (Kaken Pharmaceutical Co., Ltd., priority 1987, dated 1992).
Where two headings read alike, the source gives them in different places.

Key:
[1] = system: Candida albicans MTU 12021; assay: Checker board method, combined use of Compound 1 with miconazole or ketoconazole; assay type: cell-based; settings: for synergistic effects of combined use with Compound 1 (checker board): agent combined with Compound 1, Tables 2 and 3; for Growth: Compound 1 0; as to Growth: key: +: Growth observed; -: No growth observed
Procedure: (§1) 1 ml of each drug solution diluted twice was introduced into a sterilized Petri dish, and 8 ml of Sabouraud agar medium was added to prepare a agar plate. Thus, a series of agar plates for the combinations having various concentrations were prepared.
(§2) Candida albicans MTU 12021 strain cultured on a Sabouraud agar medium for 24 hours, was suspended in a saline, and a cells suspension having a concentration of 2×10^6 spores/ml was prepared by counting the number of spores by a hemacytometer. Then, 50 μl of the cells suspension was inoculated to the above agar plates by means of a microplanter (manufactured by Sakuma Seisakusho). The inoculated agar plates were cultured at 37° C. for 48 hours, whereupon the presence or absence of the growth of the strain was examined.
(§3) Culture medium: Sabouraud agar medium
(§4) Culturing condition: 37° C. for 48 hours
(§5) Strain used: Candida albicans MTU 12021

[2] = system: Candida albicans MTU 12021; assay: Agar dilution MIC, single and combined use; assay type: cell-based; settings: for MIC: Candida albicans, read-out: Minimum Inhibitory Concentration (MIC); for synergistic effects of combined use with Compound 1: agent combined with Compound 1, Table 1; for Minimum Inhibitory Concentration (MIC) of the agent combined with Compound 1: combined with Compound 1 at 100 μg/ml; for Minimum Inhibitory Concentration (MIC) of miconazole in combination with the arylmethylamine compound: MIC is that of miconazole, compound at a concentration of 100 mg/ml (so in the source)
Procedure: (1) The effects of the combined use of Compound 1 with various imidazole antifungal agents against Candida albicans MTU 12021 strain were examined as follows. […] Then, distilled water containing 0.1% by weight of Tween 80 was added thereto to obtain drug solutions having a concentration of from 1 to 1,000 μg/ml.
as §1, §2, §3, §4, §5

[3] = system: Candida albicans MTU 12021; assay: Disk method (growth inhibition ring); assay type: cell-based; settings: for effects of combined use with miconazole or ketoconazole: same disk method as Example 1(3)
Procedure: (3) The effects of the combined use of Compound 1 with miconazole or ketoconazole were examined by a disk method.
Candida albicans MTU 12021 stain was mixed with a Sabouraud agar medium to have a concentration of 5×10^4 spores/ml, and 10 ml thereof was poured into a sterilized Petri dish to obtain an inoculated agar plate.
50 mg of each of Compound 1, miconazole and ketoconazole was impregnated to a disk (Toyo Filter paper of 8 mm in diameter), and the disk was placed on the inoculated agar plate, followed by culturing at 37° C. for 96 hours, whereupon the synergistic effects were evaluated based on the growth inhibition ring thereby appeared.

ICR male mice = assay: Acute toxicity, oral, mice; assay type: in vivo; settings: up to 5,000 mg/kg, ICR male mice of 5 weeks old
Source text: To examine the acute toxicity of the arylmethylamine antifungal agents used in the composition of the present invention, Compounds 1 and 2 were selected, and they were, respectively, suspended in 0.5% methyl cellulose and orally administered to ICR male mice of 5 weeks old (body weight: 26-28 g) at a dose corresponding to the body weight.

[4] = Sabouraud agar, 37° C., 48 hours
[5] = MTU12021, single use, Sabouraud agar, 37° C., 48 hours

Clc1ccc(COC(Cn2ccnc2)c2ccc(Cl)cc2Cl)c(Cl)c1 (centres unmarked) [miconazole, reference compound]
synergistic effects of combined use with Compound 1 (checker board) [1]: Remarkable syntergistic effects
Growth ([1]; miconazole 0.39 μg/ml): +
Growth ([1]; miconazole 0.78 μg/ml): +
Growth ([1]; miconazole 1.56 μg/ml): +
Growth ([1]; miconazole 3.13 μg/ml): +
Growth ([1]; miconazole 12.5 μg/ml): +
Growth ([1]; miconazole 25 μg/ml): +
Growth ([1]; miconazole 50 μg/ml): -
Growth ([1]; miconazole 100 μg/ml): -
MIC ([2]; MTU12021, 48 h): 25 µg/mL
synergistic effects of combined use with Compound 1 [2]: remarkable synergistic effects
Minimum Inhibitory Concentration (MIC) of the agent combined with Compound 1 [2, 4]: 1.56 µg/mL
growth inhibition ring, disk alone ([3]; 50 mg per disk (so in the source), 37° C., 96 hours, FIG. 2): a complete inhibitory ring with a small diameter and an incomplete inhibitory ring with a large diameter

CN(Cc1ccc(C(C)(C)C)cc1)Cc1csc2ccccc12 [Compound 4, N-4-tert-butylbenzyl-N-methyl-3-benzo[b]thiophenemethylamine]
MIC [2, 5]: > 100 µg/mL
Minimum Inhibitory Concentration (MIC) of miconazole in combination with the arylmethylamine compound [2]: 1.56 µg/mL

CN(C/C=C/C#CC(C)(C)C)Cc1cccc2ccccc12 [Compound 7, (E)-N-[6,6-dimethyl-2-hepten-4-ynyl)-N-methyl-1-naphthalenemethylamine]
MIC [2, 5]: > 100 µg/mL
Minimum Inhibitory Concentration (MIC) of miconazole in combination with the arylmethylamine compound [2]: 0.78 µg/mL
effects of combined use with miconazole or ketoconazole [3]: remarkable synergistic effects

CN(Cc1ccc(C(C)(C)C)cc1)Cc1ccc(F)c2ccccc12 [Compound 3, N-4-tert-butylbenzyl-N-methyl-4-fluoro-1-naphthalenemethylamine]
MIC [2, 5]: > 100 µg/mL
Minimum Inhibitory Concentration (MIC) of miconazole in combination with the arylmethylamine compound [2]: 6.25 µg/mL

O=C(CCCCCCCCC#CI)Oc1ccccc1 [KP-4249]
MIC [2, 5]: 100 µg/mL
Minimum Inhibitory Concentration (MIC) of the agent combined with Compound 1 [2, 4]: 100 µg/mL

Clc1ccc(C(Cn2ccnc2)OCc2c(Cl)cccc2Cl)c(Cl)c1 (centres unmarked) [isoconazole]
MIC [2, 5]: 25 µg/mL
synergistic effects of combined use with Compound 1 [2]: remarkable synergistic effects
Minimum Inhibitory Concentration (MIC) of the agent combined with Compound 1 [2, 4]: 1.56 µg/mL

O=[N+]([O-])c1c(Cl)cccc1-c1c[nH]cc1Cl [Pyrrolnitrin]
MIC [2, 5]: 50 µg/mL
Minimum Inhibitory Concentration (MIC) of the agent combined with Compound 1 [2, 4]: 50 µg/mL

CN(C/C=C/c1ccccc1)Cc1cccc2ccccc12 [Compound 6, (E)-N-cinnamyl-N-methyl-1-naphthalenemethylamine]
MIC [2, 5]: > 100 µg/mL
Minimum Inhibitory Concentration (MIC) of miconazole in combination with the arylmethylamine compound [2]: 1.56 µg/mL
effects of combined use with miconazole or ketoconazole [3]: remarkable synergistic effects

C[C@@H]1[C@H](O)[C@@H](C)/C=C/C=C/C=C/C=C/C=C/C=C/C=C/[C@H](O[C@@H]2O[C@H](C)[C@@H](O)[C@H](N)[C@@H]2O)C[C@@H]2O[C@](O)(C[C@@H](O)C[C@@H](O)[C@H](O)CC[C@@H](O)C[C@@H](O)CC(=O)O[C@H]1C)C[C@H](O)[C@H]2C(=O)O [Amphotericin B]
MIC [2, 5]: 3.13 µg/mL
Minimum Inhibitory Concentration (MIC) of the agent combined with Compound 1 [2, 4]: 3.13 µg/mL

CC(=O)N1CCN(c2ccc(OCC3COC(Cn4ccnc4)(c4ccc(Cl)cc4Cl)O3)cc2)CC1 (centres unmarked) [ketoconazole, reference compound]
synergistic effects of combined use with Compound 1 (checker board) [1]: Remarkable syntergistic effects
Growth ([1]; ketoconazole 0.1 μg/ml): +
Growth ([1]; ketoconazole 0.2 μg/ml): +
Growth ([1]; ketoconazole 0.39 μg/ml): +
Growth ([1]; ketoconazole 0.78 μg/ml): +
Growth ([1]; ketoconazole 1.56 μg/ml): +
Growth ([1]; ketoconazole 3.13 μg/ml): +
Growth ([1]; ketoconazole 12.5 μg/ml): +
Growth ([1]; ketoconazole 25 μg/ml): -
Growth ([1]; ketoconazole 50 μg/ml): -
Growth ([1]; ketoconazole 100 μg/ml): -

CCC(C)(C)c1ccc(CN(C)Cc2cccc3ccccc23)cc1 [Compound 2, N-methyl-N-4-tert-pentylbenzyl-1-naphthalenemethylamine]
death (ICR male mice): no instance of death
MIC [2, 5]: > 100 µg/mL
Minimum Inhibitory Concentration (MIC) of miconazole in combination with the arylmethylamine compound [2]: 3.13 µg/mL

Clc1ccccc1C(c1ccccc1)(c1ccccc1)n1ccnc1 [clotrimazole]
MIC ([2]; MTU12021, 48 h): 12.5 µg/mL
synergistic effects of combined use with Compound 1 [2]: remarkable synergistic effects
Minimum Inhibitory Concentration (MIC) of the agent combined with Compound 1 [2, 4]: 3.13 µg/mL

Cc1cc(O)c2c(c1)O[C@@]1(C)CC[C@H]3C(C)(C)CCC[C@]34CO[C@@H]2[C@H]41 [Siccanine]
MIC [2, 5]: 25 µg/mL
Minimum Inhibitory Concentration (MIC) of the agent combined with Compound 1 [2, 4]: 25 µg/mL

Clc1ccc(CO/N=C(\Cn2ccnc2)c2ccc(Cl)cc2Cl)c(Cl)c1 [oxiconazole]
synergistic effects of combined use with Compound 1 [2]: remarkable synergistic effects

CN(Cc1ccc(C(C)(C)C)s1)Cc1cccc2ccccc12 [Compound 5, N-methyl-N-(1-naphthalenemethyl)-5-tert-butyl-2-thiophenemethylamine]
MIC [2, 5]: > 100 µg/mL
Minimum Inhibitory Concentration (MIC) of miconazole in combination with the arylmethylamine compound [2]: 3.13 µg/mL

Clc1cc(Cl)c(OCC#CI)cc1Cl [Haloprozin]
MIC [2, 5]: > 100 µg/mL
Minimum Inhibitory Concentration (MIC) of the agent combined with Compound 1 [2, 4]: > 100 µg/mL

Clc1ccc(COC(Cn2ccnc2)c2ccc(Cl)cc2Cl)cc1 (centres unmarked) [econazole]
MIC [2, 5]: 25 µg/mL
synergistic effects of combined use with Compound 1 [2]: remarkable synergistic effects
Minimum Inhibitory Concentration (MIC) of the agent combined with Compound 1 [2, 4]: 1.56 µg/mL
